According to patent publication US20130079274A1, “PHARMACEUTICAL COMPOSITIONS FOR TREATING DYSREGULATED INFLAMMATORY DISEASES” (priority 2009, published 2013):
Ends that are not written are not given here.

Columns and labels:
[1] = test system: sepsis, septic shock and MODS; settings: patients with sepsis; cited from earlier work
[2] = test system: CLP-induced polymicrobial sepsis; assay: Mortality after cecal ligation and puncture (CLP) polymicrobial sepsis; assay type: in vivo, C57BL/6-mice; settings: over 96 h
Excerpt: Maintenance and use of the animals were in accord with the German Animal Welfare Legislation. All experiments were approved by the local institutional animal care and research advisory committee and permitted by the local government of Lower Saxony (Germany). 47 male C57BL/6-mice (Charles River, Germany) with a weight of 20±3 g were used for the study. All animals were handled at room temperature for 14 days before treatment. Animals were maintained under standardized conditions with a controlled environment at 21±2° C., relative humidity of 50% and artificial light (14 hours light, 10 hours dark). They received a commercial pellet diet (altromin 1317) and water ad libitum. Analgetic treatment was performed in all animals (200 mg/kg body weight (BW) metamizol-sodium, Novalgin®, Hoechst, Unterschleiβheim, Germany) throughout the study.
All surgical procedures were performed after deeply anaesthetizing the animals with isoflurane. The mice were warmed to 36° C. using infrared warming lamps after having finished the surgical procedures. All mice received once daily subcutaneous injections of 1 ml sterile ringer's lactate for fluid replacement.
The surgical procedure was as follows: the cecum was exposed after a midline laparotomy and ligated distal to the ileocecal valve. Subsequently, the cecum was punctured twice using a 21 G needle and was returned to the abdominal cavity. […]

[3] = test system: CLP-induced polymicrobial sepsis; assay: Activity score after CLP; assay type: in vivo, C57BL/6-mice; settings: 4 μg/kg i.p. simultaneously to CLP, vs control
Protocol: The surgical procedure was as follows: the cecum was exposed after a midline laparotomy and ligated distal to the ileocecal valve. Subsequently, the cecum was punctured twice using a 21 G needle and was returned to the abdominal cavity. The model also includes the protrusion of contents of the cecum to assure the presence of bacteria in the peritoneum. The closure of the abdomen was performed with double layer sutures. Data were obtained 4, 24 and 96 hours after surgery. Clinical data concerning mortality and activity were obtained once daily until 96 hours after instrumentation.
As a measure for clinical status, activity of mice was analyzed by using a previously established scoring system, see table 1. Within this score, the spontaneous activity, spontaneous food intake and response to exogenous stimuli was analyzed. The scoring of each animal (from 1=moribund to 6=very active) was independently performed in a blinded fashion by two persons and the mean of both values was recorded.

sepsis-related mortality = settings: pretreatment four days before sepsis induction; cited from earlier work
peritoneal macrophages = assay: Cytokine and chemokine secretion of isolated peritoneal macrophages after CLP; settings: cells isolated 24 h after CLP, cultured 24 h; vs control, p>0.05
Protocol: The control group received saline as vehicle, the study group was substituted with 4 μg/kg MALP-2 i.p simultaneously to cecal ligation and puncture (CLP). All animals underwent CLP for induction of polymicrobial sepsis.
Peritoneal macrophages were isolated by lavage of the peritoneal cavity with 3×5 ml PBS containing 10 IU/ml heparin (Ratiopharm) 24 hours after CLP. Thereafter, cells were washed once with PBS and centrifuged at 400×g for 15 minutes at 4° C. The pellet was resuspended in 5 ml RPMI (Biochrom) containing 10% FCS and antibiotics (50 U/ml penicillin, 50 μg/ml streptomycin, Invitrogen; 2.5 μg/ml Amphotericin B, Biochrom). 106 cells were plated in a 24-well plate and incubated for 24 hours at 37° C., 95% humidity, and 5% CO2. At the end of the incubation period, the supernatants were removed and stored at −80° C. until analysis was performed.
Cytokine and chemokines in plasma and cell culture supernatant were measured with Multiplex and Simplex Kits according to manufacturer's instructions (BenderMed Systems, Vienna, Austria).

Substance | reduction of death of affected patients [1] [%] | total mortality ([2]; 4 μg/kg BW i.p. simultaneously to CLP, control 62.5%, p=0.031) [%] | mortality ([2]; MALP-2 i.p. 6 hours following CLP, p=0.047 vs vehicle) [%] | activity rates (activity score, table 1) ([3]; 24 to 72 hours following CLP, p<0.05) | activity rates (activity score, table 1) ([3]; after 96 hours) | protection against sepsis-related mortality (sepsis-related mortality) | IL-6, IL-10, TNF-α, MCP-1, MCP-3 or GM-CSF of peritoneal macrophages (peritoneal macrophages)
activated protein C | 6.1 | – | – | – | – | – | –
Macrophage-activating lipopeptide-2 (GNNDESNISFKEK; not fully specified) [MALP-2] | – | 12.5 | 22.2 | increased | comparable between both groups | partial protection | No differences
